# Source: the supplement of paper PMC10307832
# Key:
# Experiment in all cases: relative viability (nuclei count vs DMSO), 5 days (fraction); higher = more cells survive
# NCI-H1355 = system: NCI-H1355
# Outline: (§1)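 Dosing by pin tool came one day after lung cancer cell lines were seeded in 1536-well plates, using either one drug or a fixed anchor-drug dose plus five library-drug doses (not always all listed) in √10 steps. After 5 days, nuclei were counted on 4× images. Relative viability is treated-well nuclei count divided by vehicle-well nuclei count, and values are medians of duplicate plates.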
# NCI-H650 = system: NCI-H650
# Outline: as §1
# NCI-H1792 = system: NCI-H1792
# Outline: as §1
# HCC-366 = system: HCC-366
# Outline: as §1
# SK-MES-1 = system: SK-MES-1
# Outline: as §1
# NCI-H1993 = system: NCI-H1993
# Outline: as §1
# SW 1573 = system: SW 1573
# Outline: as §1
# SK-LU-1 = system: SK-LU-1
# Outline: as §1
# NCI-H2228 = system: NCI-H2228
# Outline: as §1
# HCC-827 = system: HCC-827
# Outline: as §1
# NCI-H1975 = system: NCI-H1975
# Outline: as §1
smiles,measurement,setting,value
Cc1csc(=NC2CCCCC2)n1/N=C/c1ccc(O)c(O)c1O [MIM1] + C[C@@H](Oc1cc(-c2cnn(C3CCNCC3)c2)cnc1N)c1c(Cl)ccc(F)c1Cl [Crizotinib] (partner 1 µM),relative viability,NCI-H1355; first compound 0.2 µM,1.04
same,relative viability,NCI-H1355; first compound 0.6325 µM,1.16
same,relative viability,NCI-H1355; first compound 2 µM,1
same,relative viability,NCI-H1355; first compound 6.325 µM,0.94
same,relative viability,NCI-H1355; first compound 20 µM,0.516
same,relative viability,NCI-H650; first compound 0.2 µM,0.649
same,relative viability,NCI-H650; first compound 0.6325 µM,0.709
same,relative viability,NCI-H650; first compound 2 µM,0.662
same,relative viability,NCI-H650; first compound 6.325 µM,0.619
same,relative viability,NCI-H650; first compound 20 µM,0.279
same,relative viability,NCI-H1792; first compound 0.2 µM,0.935
same,relative viability,NCI-H1792; first compound 0.6325 µM,0.897
same,relative viability,NCI-H1792; first compound 2 µM,1.02
same,relative viability,NCI-H1792; first compound 6.325 µM,0.481
same,relative viability,NCI-H1792; first compound 20 µM,0.902
same,relative viability,HCC-366; first compound 0.2 µM,0.552
same,relative viability,HCC-366; first compound 0.6325 µM,0.483
same,relative viability,HCC-366; first compound 2 µM,0.326
same,relative viability,HCC-366; first compound 6.325 µM,0.425
same,relative viability,HCC-366; first compound 20 µM,0.0362
same,relative viability,SK-MES-1; first compound 0.2 µM,0.953
same,relative viability,SK-MES-1; first compound 0.6325 µM,0.937
same,relative viability,SK-MES-1; first compound 2 µM,0.959
same,relative viability,SK-MES-1; first compound 6.325 µM,0.799
same,relative viability,SK-MES-1; first compound 20 µM,0.732
same,relative viability,NCI-H1993; first compound 0.2 µM,0.886
same,relative viability,NCI-H1993; first compound 0.6325 µM,0.805
same,relative viability,NCI-H1993; first compound 2 µM,0.827
same,relative viability,NCI-H1993; first compound 6.325 µM,0.608
same,relative viability,NCI-H1993; first compound 20 µM,0.594
same,relative viability,SW 1573; first compound 0.2 µM,0.8
same,relative viability,SW 1573; first compound 0.6325 µM,0.847
same,relative viability,SW 1573; first compound 2 µM,0.875
same,relative viability,SW 1573; first compound 6.325 µM,0.661
same,relative viability,SW 1573; first compound 20 µM,0.451
same,relative viability,SK-LU-1; first compound 0.2 µM,1.02
same,relative viability,SK-LU-1; first compound 0.6325 µM,0.895
same,relative viability,SK-LU-1; first compound 2 µM,1.07
same,relative viability,SK-LU-1; first compound 6.325 µM,0.815
same,relative viability,SK-LU-1; first compound 20 µM,0.843
same,relative viability,NCI-H2228; first compound 0.2 µM,0.453
same,relative viability,NCI-H2228; first compound 0.6325 µM,0.488
same,relative viability,NCI-H2228; first compound 2 µM,0.61
same,relative viability,NCI-H2228; first compound 6.325 µM,0.241
same,relative viability,NCI-H2228; first compound 20 µM,0.22
same,relative viability,HCC-827; first compound 0.2 µM,0.971
same,relative viability,HCC-827; first compound 0.6325 µM,0.919
same,relative viability,HCC-827; first compound 2 µM,0.927
same,relative viability,HCC-827; first compound 6.325 µM,0.307
same,relative viability,HCC-827; first compound 20 µM,0.366
same,relative viability,NCI-H1975; first compound 0.2 µM,0.908
same,relative viability,NCI-H1975; first compound 0.6325 µM,1.1
same,relative viability,NCI-H1975; first compound 2 µM,0.871
same,relative viability,NCI-H1975; first compound 6.325 µM,0.545
same,relative viability,NCI-H1975; first compound 20 µM,0.482
